Broadly, the DC50 is the concentration at which degradation of the target reaches its halfway point. A low value points to degradation at low concentration.

The target of one assay is GSPT1 (Homo sapiens, UniProt P15170+Q96SW2). Nature of the assay: HiBiT degradation assay, GSPT1, Procedure A. The class given is cell-based. Details: HiBit-GSPT1 KI HEK293(LgBit) Cells; host or cells: HEK293(LgBit) knock-in cells. In short, it runs like this: (§1)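 Cells in DMEM + 10% FBS were treated with compound in a ten-point dose response from 10 μM to 0.005 μM (0.1% DMSO) for six hours at 37° C. Lysis with Nano-Glo HiBiT detection reagent followed, with luminescence read. DC50 and Ymin came from a 4-parameter fit.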
On the technique in general: With HiBiT, luminescence reflects the tagged protein that the partner subunit can reach.

In the next assay the target is T1, CK1α (Homo sapiens, UniProt P48729+Q96SW2).
T1 construct: CSNK1A1-HiBit KI HEK293(LgBit) Cells; host or cells: HEK293(LgBit) knock-in cells
In words: HiBiT degradation assay, CK1α, Procedure A. It is filed as cell-based. In short, it runs like this:
as §1

Sequence of GSPT1 (P15170 whole entry): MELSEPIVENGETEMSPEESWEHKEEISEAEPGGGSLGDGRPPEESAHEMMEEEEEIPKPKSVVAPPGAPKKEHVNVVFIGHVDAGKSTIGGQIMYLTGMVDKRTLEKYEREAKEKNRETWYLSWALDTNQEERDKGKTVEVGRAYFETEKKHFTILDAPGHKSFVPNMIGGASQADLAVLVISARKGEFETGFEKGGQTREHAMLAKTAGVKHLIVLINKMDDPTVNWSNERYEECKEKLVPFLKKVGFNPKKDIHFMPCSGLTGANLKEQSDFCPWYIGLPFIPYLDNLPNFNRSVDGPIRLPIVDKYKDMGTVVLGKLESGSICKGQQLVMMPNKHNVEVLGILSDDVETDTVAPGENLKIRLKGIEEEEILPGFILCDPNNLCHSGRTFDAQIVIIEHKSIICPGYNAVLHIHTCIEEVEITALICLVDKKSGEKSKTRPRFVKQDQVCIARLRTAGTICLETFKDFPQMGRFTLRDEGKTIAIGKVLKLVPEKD
Sequence of GSPT1 (Q96SW2 whole entry): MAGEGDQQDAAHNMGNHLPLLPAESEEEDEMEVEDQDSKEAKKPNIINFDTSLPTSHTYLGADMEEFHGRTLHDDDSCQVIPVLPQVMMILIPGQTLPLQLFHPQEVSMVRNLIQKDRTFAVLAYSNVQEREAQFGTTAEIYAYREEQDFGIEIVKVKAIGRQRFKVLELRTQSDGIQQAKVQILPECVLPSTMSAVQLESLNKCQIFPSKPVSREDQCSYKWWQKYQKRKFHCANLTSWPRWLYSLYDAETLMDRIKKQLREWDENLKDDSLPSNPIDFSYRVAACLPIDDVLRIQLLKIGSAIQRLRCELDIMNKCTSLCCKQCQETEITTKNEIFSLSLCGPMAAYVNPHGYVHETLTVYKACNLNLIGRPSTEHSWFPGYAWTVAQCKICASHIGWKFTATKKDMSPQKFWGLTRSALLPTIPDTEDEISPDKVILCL
Sequence of GSPT1 (Q16531 whole entry partner): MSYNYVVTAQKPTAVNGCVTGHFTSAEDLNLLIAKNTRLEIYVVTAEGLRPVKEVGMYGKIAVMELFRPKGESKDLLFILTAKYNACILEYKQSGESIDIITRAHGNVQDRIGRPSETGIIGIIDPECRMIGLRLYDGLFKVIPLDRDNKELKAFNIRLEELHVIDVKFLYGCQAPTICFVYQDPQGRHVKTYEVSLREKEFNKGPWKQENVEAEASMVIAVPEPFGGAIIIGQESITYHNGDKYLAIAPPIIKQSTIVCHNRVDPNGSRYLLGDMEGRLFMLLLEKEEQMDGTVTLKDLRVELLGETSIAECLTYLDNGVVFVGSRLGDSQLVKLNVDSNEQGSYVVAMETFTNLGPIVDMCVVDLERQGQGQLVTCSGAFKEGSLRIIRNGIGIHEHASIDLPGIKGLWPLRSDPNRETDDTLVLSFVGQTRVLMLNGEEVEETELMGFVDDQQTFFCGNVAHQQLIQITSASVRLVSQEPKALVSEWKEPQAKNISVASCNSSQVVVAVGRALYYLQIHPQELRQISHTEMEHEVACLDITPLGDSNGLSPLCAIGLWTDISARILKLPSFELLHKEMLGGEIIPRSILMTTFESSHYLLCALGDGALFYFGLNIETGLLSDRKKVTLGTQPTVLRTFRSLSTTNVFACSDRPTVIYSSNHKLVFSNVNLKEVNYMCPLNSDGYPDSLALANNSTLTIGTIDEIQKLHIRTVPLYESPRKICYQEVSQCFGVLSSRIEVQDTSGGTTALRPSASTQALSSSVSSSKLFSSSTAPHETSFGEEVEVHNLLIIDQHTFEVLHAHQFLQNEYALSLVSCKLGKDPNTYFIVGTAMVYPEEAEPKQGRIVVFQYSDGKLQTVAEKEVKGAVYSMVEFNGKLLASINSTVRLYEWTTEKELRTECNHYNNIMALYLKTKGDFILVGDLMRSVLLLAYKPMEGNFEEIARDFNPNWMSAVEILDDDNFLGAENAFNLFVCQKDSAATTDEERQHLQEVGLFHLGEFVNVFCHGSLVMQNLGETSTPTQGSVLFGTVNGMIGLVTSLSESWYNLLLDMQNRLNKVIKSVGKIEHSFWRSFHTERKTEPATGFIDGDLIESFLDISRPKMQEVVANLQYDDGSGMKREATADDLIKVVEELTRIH
T1 sequence (P48729 whole entry): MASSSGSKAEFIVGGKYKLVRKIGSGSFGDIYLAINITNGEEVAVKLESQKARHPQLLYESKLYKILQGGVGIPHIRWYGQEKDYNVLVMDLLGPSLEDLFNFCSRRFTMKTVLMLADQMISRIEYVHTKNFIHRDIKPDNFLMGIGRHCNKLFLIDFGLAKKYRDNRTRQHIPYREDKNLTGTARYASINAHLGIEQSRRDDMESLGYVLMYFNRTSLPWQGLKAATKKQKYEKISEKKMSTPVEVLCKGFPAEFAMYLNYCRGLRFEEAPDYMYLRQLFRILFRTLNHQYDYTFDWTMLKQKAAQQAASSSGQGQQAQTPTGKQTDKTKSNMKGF
T1 sequence (Q96SW2 whole entry): as the sequence (Q96SW2 whole entry) above
T1 sequence (Q16531 whole entry partner): as the sequence (Q16531 whole entry partner) above

Consider `[2H]C([2H])([2H])n1cc(-c2ccc3c(c2)CN(C2CCC(=O)NC2=O)C3=O)nc1-c1ccccc1` (stereo not shown) [Example 437, 3-(5-(1-(methyl-d3)-2-phenyl-1H-imidazol-4-yl)-1-oxoisoindolin-2-yl)piperidine-2,6-dione], for which, at GSPT1 (six hours), the DC50 is under 25 nM and the “GSPT1 Ymin” value is “F (F = >75-100% remaining)”. Further, at CK1α (six hours), the “CK1α Ymin” value was “C (C = 0-10% remaining)” and the DC50 is under 25 nM.

As for `Cn1cnc(-c2ccc3c(c2)CN(C2CCC(=O)NC2=O)C3=O)c1-c1ccccc1C(F)(F)F` (stereo not shown) [Example 282], on GSPT1 (six hours incubation), the DC50 is at least 25 nM and the “GSPT1 Ymin” value is recorded as “F (F = >75-100% remaining)”. For the same compound, on CK1α (six hours incubation), the “CK1α Ymin” value is recorded as “E (E = >25-75% remaining)” and the DC50 was under 25 nM.

In the case of `Cn1cnc(-c2ccc3c(c2)CN(C2CCC(=O)NC2=O)C3=O)c1-c1ccc(C(=O)NCc2ccccc2)c(Cl)c1` (stereo not shown) [Example 307], at GSPT1 (six hours incubation), the DC50 is under 25 nM and the “GSPT1 Ymin” value was “F (F = >75-100% remaining)”. At CK1α (six hours incubation), the “CK1α Ymin” value is given as “D (D = >10- 25% remaining)” and the DC50 is at least 25 nM.

As to `Cc1nn(C)c(-c2ccc3c(c2)CN(C2CCC(=O)NC2=O)C3=O)c1-c1ccccc1` (stereo not shown) [Example 18, 3-(5-(1,3-Dimethyl-4-phenyl-1H-pyrazol-5-yl)-1-oxoisoindolin-2-yl)piperidine-2,6-dione], at GSPT1 (six hours incubation), the DC50 was at least 25 nM and the “GSPT1 Ymin” value is reported as “E (E = >25-75% remaining)”. At CK1α (six hours incubation), the “CK1α Ymin” value was “E (E = >25-75% remaining)” and the DC50 is at least 25 nM.

As for `Cn1ncc(-c2ccc3c(c2)CN(C2CCC(=O)NC2=O)C3=O)c1-c1ccc2nccn2c1` (stereo not shown) [Example 382], at GSPT1 (six hours), the DC50 is at least 25 nM and the “GSPT1 Ymin” value is on record as “F (F = >75-100% remaining)”. At CK1α (six hours), the “CK1α Ymin” value is “D (D = >10- 25% remaining)” and the DC50 is at least 25 nM.

With `Cn1cnc(-c2ccc3c(c2)CN(C2CCC(=O)NC2=O)C3=O)c1-c1cc(Cl)cc(C#N)c1` (stereo not shown) [Example 271], at GSPT1 (six hours incubation), the DC50 is under 25 nM and the “GSPT1 Ymin” value is listed as “F (F = >75-100% remaining)”. For the same compound, on CK1α (six hours incubation), the “CK1α Ymin” value is on record as “E (E = >25-75% remaining)” and the DC50 is at least 25 nM.

As for `Cn1cnc(-c2ccc3c(c2)CN(C2CCC(=O)NC2=O)C3=O)c1-c1ccc(C(=O)NC2CCCC2)cc1` (stereo not shown) [Example 300], on GSPT1 (six hours incubation), the DC50 is at least 25 nM and the “GSPT1 Ymin” value is on record as “F (F = >75-100% remaining)”. Also, on CK1α (six hours incubation), the “CK1α Ymin” value is listed as “D (D = >10- 25% remaining)” and the DC50 is at least 25 nM.

Regarding `Cn1ncc(-c2ccc3c(c2)CN(C2CCC(=O)NC2=O)C3=O)c1-c1ccncc1` (stereo not shown) [Example 361], at GSPT1 (six hours incubation), the DC50 is at least 25 nM and the “GSPT1 Ymin” value is reported as “F (F = >75-100% remaining)”. At CK1α (six hours incubation), the “CK1α Ymin” value is recorded as “E (E = >25-75% remaining)” and the DC50 was under 25 nM.

In the case of `Cc1csc(-c2c(-c3ccc4c(c3)CN(C3CCC(=O)NC3=O)C4=O)cnn2C)c1` (stereo not shown) [Example 128], on GSPT1 (six hours incubation), the DC50 is at least 25 nM and the “GSPT1 Ymin” value is listed as “F (F = >75-100% remaining)”. Further, at CK1α (six hours incubation), the “CK1α Ymin” value is listed as “D (D = >10- 25% remaining)” and the DC50 was under 25 nM.

On to `Cn1nccc1-c1c(-c2ccc3c(c2)CN(C2CCC(=O)NC2=O)C3=O)cnn1C` (stereo not shown) [Example 451], for which, at GSPT1 (six hours), the DC50 was at least 25 nM and the “GSPT1 Ymin” value was “F (F = >75-100% remaining)”. Besides, on CK1α (six hours), the “CK1α Ymin” value is recorded as “E (E = >25-75% remaining)” and the 50% degradation concentration (DC50) was at least 25 nM.

Regarding `Cc1ccc(-c2c(-c3ccc4c(c3)CN(C3CCC(=O)NC3=O)C4=O)cnn2C)c(Cl)c1` (stereo not shown) [Example 85], at GSPT1 (six hours incubation), the DC50 is at least 25 nM and the “GSPT1 Ymin” value is reported as “F (F = >75-100% remaining)”. Besides, at CK1α (six hours incubation), the “CK1α Ymin” value is recorded as “E (E = >25-75% remaining)” and the DC50 was under 25 nM.

In the case of `Cn1ncc(-c2ccc3c(c2)CN(C2CCC(=O)NC2=O)C3=O)c1-c1ccc(S(=O)(=O)NC2CCCCC2)cc1` (stereo not shown) [Example 160], at GSPT1 (six hours incubation), the DC50 is at least 25 nM and the “GSPT1 Ymin” value is “C (C = 0-10% remaining)”. Also, at CK1α (six hours incubation), the “CK1α Ymin” value is on record as “E (E = >25-75% remaining)” and the DC50 was at least 25 nM.

Consider `Cc1cc(Cl)ccc1-c1c(-c2ccc3c(c2)CN(C2CCC(=O)NC2=O)C3=O)ncn1C` (stereo not shown) [Example 254], for which, on GSPT1 (six hours incubation), the DC50 is under 25 nM and the “GSPT1 Ymin” value is on record as “E (E = >25-75% remaining)”. Also, at CK1α (six hours incubation), the “CK1α Ymin” value is given as “E (E = >25-75% remaining)” and the half-maximal degradation concentration (DC50) was under 25 nM.

In the case of `Cn1cnc(-c2ccc3c(c2)CN(C2CCC(=O)NC2=O)C3=O)c1-c1cccc(-n2cccn2)c1` (stereo not shown) [Example 516], on GSPT1 (six hours), the DC50 was under 25 nM and the “GSPT1 Ymin” value was “F (F = >75-100% remaining)”. Moreover, at CK1α (six hours), the “CK1α Ymin” value is recorded as “D (D = >10- 25% remaining)” and the DC50 was under 25 nM.

In the case of `Cn1cnc(-c2ccc3c(c2)CN(C2CCC(=O)NC2=O)C3=O)c1-c1ccc2c(c1)OCC2` (stereo not shown) [Example 245], at GSPT1 (six hours incubation), the DC50 is at least 25 nM and the “GSPT1 Ymin” value was “F (F = >75-100% remaining)”. At CK1α (six hours incubation), the “CK1α Ymin” value is listed as “E (E = >25-75% remaining)” and the DC50 is under 25 nM.

As to `Cn1ncc(-c2ccc3c(c2)CN(C2CCC(=O)NC2=O)C3=O)c1-c1cc(F)ccc1Cl` (stereo not shown) [Example 120], at GSPT1 (six hours incubation), the DC50 is at least 25 nM and the “GSPT1 Ymin” value is on record as “F (F = >75-100% remaining)”. On CK1α (six hours incubation), the “CK1α Ymin” value is on record as “E (E = >25-75% remaining)” and the DC50 was at least 25 nM.

On to `Cn1cnc(-c2ccc3c(c2)CN(C2CCC(=O)NC2=O)C3=O)c1-c1cccc2ccccc12` (stereo not shown) [Example 255], for which, at GSPT1 (six hours incubation), the DC50 was under 25 nM and the “GSPT1 Ymin” value is “F (F = >75-100% remaining)”. In addition, on CK1α (six hours incubation), the “CK1α Ymin” value is “E (E = >25-75% remaining)” and the DC50 is under 25 nM.

In the case of `Cc1ccc(-c2c(-c3ccc4c(c3)CN(C3CCC(=O)NC3=O)C4=O)ncn2C)c(F)c1` (stereo not shown) [Example 239], at GSPT1 (six hours incubation), the DC50 was under 25 nM and the “GSPT1 Ymin” value is “F (F = >75-100% remaining)”. On CK1α (six hours incubation), the “CK1α Ymin” value is reported as “C (C = 0-10% remaining)” and the DC50 was under 25 nM.

For the compound `CC(C)n1nc(-c2ccccc2)nc1-c1ccc2c(c1)CN(C1CCC(=O)NC1=O)C2=O` (stereo not shown) [Example 610, 3-(5-(1-isopropyl-3-phenyl-1H-1,2,4-triazol-5-yl)-1-oxoisoindolin-2-yl)piperidine-2,6-dione], on GSPT1 (six hours), the DC50 was at least 25 nM and the “GSPT1 Ymin” value is on record as “E (E = >25-75% remaining)”. Also, at CK1α (six hours), the “CK1α Ymin” value is reported as “D (D = >10- 25% remaining)” and the DC50 is under 25 nM.

Regarding `Cn1cnc(-c2ccc3c(c2)CN(C2CCC(=O)NC2=O)C3=O)c1-c1ccc(N)nc1` (stereo not shown) [Example 522], on GSPT1 (six hours), the half-maximal degradation concentration (DC50) was at least 25 nM and the “GSPT1 Ymin” value was “E (E = >25-75% remaining)”. For the same compound, on CK1α (six hours), the “CK1α Ymin” value was “D (D = >10- 25% remaining)” and the DC50 is at least 25 nM.

Regarding `COc1ccc(-c2c(-c3ccc4c(c3)CN(C3CCC(=O)NC3=O)C4=O)cnn2C)cn1` (stereo not shown) [Example 378], on GSPT1 (six hours), the DC50 was at least 25 nM and the “GSPT1 Ymin” value is given as “F (F = >75-100% remaining)”. For the same compound, at CK1α (six hours), the “CK1α Ymin” value is “E (E = >25-75% remaining)” and the DC50 was under 25 nM.

In the case of `Cn1cnc(-c2ccc3c(c2)CN(C2CCC(=O)NC2=O)C3=O)c1-c1ccc2scnc2c1` (stereo not shown) [Example 402], at GSPT1 (six hours), the DC50 was at least 25 nM and the “GSPT1 Ymin” value was “F (F = >75-100% remaining)”. Also, at CK1α (six hours), the “CK1α Ymin” value was “E (E = >25-75% remaining)” and the DC50 is under 25 nM.

Values taken from patent US20240158370A1, “CK1 alpha AND DUAL CK1 alpha / GSPT1 DEGRADING COMPOUNDS” (Innovo Therapeutics, Inc., priority 2022, published 2024).
